Source: patent publication US20090062295A1, “Pharmaceutical Products” (MITSUBISHI PHARMA CORPORATION, priority 2005, published 2009)

Assay: Influence of pH on content of the compound in solution after storage (Example 1, HPLC)
Type: physicochemical
Conditions: 1 mg/mL in Britton-Robinson buffer at pH 2, 3, 4, 5 and 6, 1 month storage at 25 or 40° C.
Procedure: A solution was prepared so as to contain the compound at 1 mg/mL of a solvent, and divided as aliquots in clear test tubes and the tubes were tightly sealed. The Britton-Robinson buffer was used as the solvent to prepare sample solutions at pH 2, 3, 4, 5 and 6.
After 1 month storage of these sample solutions under each temperature condition of 25 or 40° C., the contents of the compound were determined by HPLC under the following measurement conditions.
Sample solution: 1 mL of specimen/25 mL of mobile phase
Temperature: Room temperature Mobile phase: 1 M Et3N (adjusted at pH 8 with AcOH):CH3CN:H2O=50:250:700 Flow rate: […]
Loaded volume: 20 μL Quantification method: Corrected area percentage

For Cl.O.O.O.O=C1CCC(c2ccc(Nc3ccncc3)cc2)=NN1 [the compound, 6-[4-(4-pyridylamino)phenyl]-4,5-dihydro-3(2H)-pyridazinone hydrochloride trihydrate], the “remaining ratio of the compound” value was “highest at pH 5 to 6”.
